In patent US6737383B1, “Herbicidal oxadiazolidines” (priority 1999, dated 2004):

Columns and labels:
bedstraw = experiment: Test B pre/postemergence bedstraw; assay type: in vivo, Galium aparine; conditions: Postemergence; for Plant response rating, Bedstraw: scale 0 to 10, 0 is no effect, 10 is complete control; for Bedstraw plant response rating: scale of 0 to 10 where 0 is no effect and 10 is complete control
Summary of the method: (§1)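 Response is a visual 0-to-10 score relative to untreated plants, where 0 means no effect and 10 means complete control, taken twelve to sixteen days after application. Treatments went onto soil at planting and onto foliage of 1- to 4-leaf plants, using a surfactant-containing non-phytotoxic solvent.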

blackgrass = experiment: Test B pre/postemergence blackgrass; assay type: in vivo, Alopecurus myosuroides
Summary of the method: as §1

surinam grass = experiment: Test B pre/postemergence surinam grass; assay type: in vivo, Brachiaria decumbens
Summary of the method: as §1

cocklebur = experiment: Test B pre/postemergence cocklebur; assay type: in vivo, Xanthium strumarium
Summary of the method: as §1

corn = experiment: Test B pre/postemergence corn; assay type: in vivo, Zea mays
Summary of the method: as §1

crabgrass = experiment: Test B pre/postemergence crabgrass; assay type: in vivo, Digitaria sanguinalis
Summary of the method: as §1

giant foxtail = experiment: Test B pre/postemergence giant foxtail; assay type: in vivo, Setaria faberii
Summary of the method: as §1

morningglory = experiment: Test B pre/postemergence morningglory; assay type: in vivo, Ipomoea hederacea
Summary of the method: as §1

pigweed = experiment: Test B pre/postemergence pigweed; assay type: in vivo, Amaranthus retroflexus
Summary of the method: as §1

rape = experiment: Test B pre/postemergence rape; assay type: in vivo, Brassica napus
Summary of the method: as §1

soybean = experiment: Test B pre/postemergence soybean; assay type: in vivo, Glycine max
Summary of the method: as §1

sugar beet = experiment: Test B pre/postemergence sugar beet; assay type: in vivo, Beta vulgaris
Summary of the method: as §1

velvetleaf = experiment: Test B pre/postemergence velvetleaf; assay type: in vivo, Abutilon theophrasti
Summary of the method: as §1

wheat = experiment: Test B pre/postemergence wheat; assay type: in vivo, Triticum aestivum
Summary of the method: as §1

wild oat = experiment: Test B pre/postemergence wild oat; assay type: in vivo, Avena fatua
Summary of the method: as §1

purple nutsedge = experiment: Test B pre/postemergence purple nutsedge; assay type: in vivo, Cyperus rotundus
Summary of the method: as §1

rice = experiment: Test B flood test rice; assay type: in vivo, Oryza sativa
Summary of the method: (§2)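 Read-out is a visual response score from 0 (no effect) to 10 (complete control), assigned by comparison with untreated controls. Treatment was applied at the 2-leaf stage, and plants stayed in the greenhouse for twelve to sixteen days before scoring.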

smallflower flatsedge = experiment: Test B flood test smallflower flatsedge; assay type: in vivo, Cyperus difformis
Summary of the method: as §2

duck salad = experiment: Test B flood test duck salad; assay type: in vivo, Heteranthera limosa
Summary of the method: as §2

bamyardgrass = experiment: Test B flood test barnyardgrass; assay type: in vivo, Echinochloa crus-galli
Summary of the method: as §2

[1] = Postemergence, Rate 125 g/ha, scale 0 to 10, 0 is no effect, 10 is complete control
[2] = Postemergence, Rate 250 g/ha, scale 0 to 10, 0 is no effect, 10 is complete control
[3] = Postemergence, Rate 500 g/ha, scale of 0 to 10 where 0 is no effect and 10 is complete control
[4] = Preemergence, Rate 62 g/ha, scale 0 to 10 (0 no effect, 10 complete control)
[5] = Preemergence, Rate 125 g/ha, scale of 0 to 10 where 0 is no effect and 10 is complete control
[6] = Preemergence, Rate 250 g/ha, scale of 0 to 10 where 0 is no effect and 10 is complete control
[7] = Preemergence, Rate 500 g/ha, scale 0 to 10, 0 is no effect, 10 is complete control
[8] = Rate 62 g/ha, Postemergence, scale of 0 to 10 where 0 is no effect and 10 is complete control
[9] = Preemergence, Rate 250 g/ha, scale 0 to 10, 0 is no effect, 10 is complete control
[10] = Rate 62 g/ha, flood test species, Pre-emergence, visual evaluation after twelve to sixteen days
[11] = Rate 125 g/ha, under heading Pre-emergence, flood test species, visual evaluation after twelve to sixteen days
[12] = Rate 250 g/ha, Pre-emergence, flood-test species, scale 0 to 10, 0 is no effect, 10 is complete control
[13] = Rate 500 g/ha, Pre-emergence, flood test species, scale 0 to 10 (0 no effect, 10 complete control)

CC(C)N(C(=O)n1oc(=O)n(C(C)CCl)c1=O)c1ccc(F)cc1F (centres unmarked) [Compound 408]
Plant response rating, Bedstraw (bedstraw; Rate 125 g/ha): 6
Plant response rating, Bedstraw (bedstraw; Rate 250 g/ha): 8
Bedstraw plant response rating (bedstraw; Rate 500 g/ha): 9
Bedstraw plant response rating (bedstraw; Rate 62 g/ha): 6
Plant response rating, Blackgrass (blackgrass; [1]): 2
Plant response rating, Blackgrass (blackgrass; [2]): 9
Blackgrass plant response rating (blackgrass; [3]): 10
Plant response rating, Blackgrass (blackgrass; [4]): 6
Plant response rating, Blackgrass (blackgrass; [5]): 9
Blackgrass plant response rating (blackgrass; [6]): 9
Blackgrass plant response rating (blackgrass; [7]): 10
Blackgrass plant response rating (blackgrass; [8]): 0
Plant response rating, B. signalgrass (surinam grass; [1]): 0
Plant response rating, B. signalgrass (surinam grass; [2]): 0
B. signalgrass plant response rating (surinam grass; [3]): 5
Plant response rating, B. signalgrass (surinam grass; [4]): 0
Plant response rating, B. signalgrass (surinam grass; [5]): 2
B. signalgrass plant response rating (surinam grass; [6]): 4
B. signalgrass plant response rating (surinam grass; Preemergence, Rate 500 g/ha, scale of 0 to 10 where 0 is no effect and 10 is complete control): 7
B. signalgrass plant response rating (surinam grass; [8]): 0
Plant response rating, Cocklebur (cocklebur; [1]): 0
Plant response rating, Cocklebur (cocklebur; [2]): 0
Cocklebur plant response rating (cocklebur; [3]): 3
Plant response rating, Cocklebur (cocklebur; [4]): 0
Plant response rating, Cocklebur (cocklebur; [5]): 0
Cocklebur plant response rating (cocklebur; [9]): 0
Cocklebur plant response rating (cocklebur; [7]): 0
Cocklebur plant response rating (cocklebur; [8]): 0
Plant response rating, Corn (corn; [1]): 0
Plant response rating, Corn (corn; [2]): 0
Corn plant response rating (corn; [3]): 0
Plant response rating, Corn (corn; [4]): 0
Plant response rating, Corn (corn; [5]): 2
Corn plant response rating (corn; [9]): 4
Corn plant response rating (corn; [7]): 8
Corn plant response rating (corn; [8]): 0
Plant response rating, Crabgrass (crabgrass; [1]): 4
Plant response rating, Crabgrass (crabgrass; [2]): 8
Crabgrass plant response rating (crabgrass; [3]): 9
Plant response rating, Crabgrass (crabgrass; [4]): 9
Plant response rating, Crabgrass (crabgrass; [5]): 10
Crabgrass plant response rating (crabgrass; [9]): 10
Crabgrass plant response rating (crabgrass; [7]): 10
Crabgrass plant response rating (crabgrass; [8]): 3
Plant response rating, Giant foxtail (giant foxtail; [1]): 9
Plant response rating, Giant foxtail (giant foxtail; [2]): 9
Giant foxtail plant response rating (giant foxtail; [3]): 9
Plant response rating, Giant foxtail (giant foxtail; [4]): 10
Plant response rating, Giant foxtail (giant foxtail; [5]): 10
Giant foxtail plant response rating (giant foxtail; [9]): 10
Giant foxtail plant response rating (giant foxtail; [7]): 10
Giant foxtail plant response rating (giant foxtail; [8]): 9
Plant response rating, Morningglory (morningglory; [2]): 7
Morningglory plant response rating (morningglory; [3]): 7
Plant response rating, Morningglory (morningglory; [4]): 0
Plant response rating, Morningglory (morningglory; [5]): 0
Morningglory plant response rating (morningglory; [9]): 0
Morningglory plant response rating (morningglory; [7]): 7
Plant response rating, Redroot pigweed (pigweed; [2]): 0
Redroot pigweed plant response rating (pigweed; [3]): 7
Plant response rating, Redroot pigweed (pigweed; [4]): 4
Plant response rating, Redroot pigweed (pigweed; [5]): 6
Redroot pigweed plant response rating (pigweed; [9]): 10
Redroot pigweed plant response rating (pigweed; [7]): 10
Rape plant response rating (rape; [3]): 2
Plant response rating, Rape (rape; [4]): 0
Plant response rating, Rape (rape; [5]): 0
Rape plant response rating (rape; [9]): 6
Rape plant response rating (rape; [7]): 8
Plant response rating, Soybean (soybean; [2]): 3
Soybean plant response rating (soybean; [3]): 4
Plant response rating, Soybean (soybean; [4]): 0
Plant response rating, Soybean (soybean; [5]): 0
Soybean plant response rating (soybean; [9]): 0
Soybean plant response rating (soybean; [7]): 0
Plant response rating, Sugarbeets (sugar beet; [2]): 0
Sugarbeets plant response rating (sugar beet; [3]): 6
Plant response rating, Sugarbeets (sugar beet; [4]): 2
Plant response rating, Sugarbeets (sugar beet; [5]): 4
Sugarbeets plant response rating (sugar beet; [9]): 8
Sugarbeets plant response rating (sugar beet; [7]): 8
Plant response rating, Velvetleaf (velvetleaf; [2]): 0
Velvetleaf plant response rating (velvetleaf; [3]): 4
Plant response rating, Velvetleaf (velvetleaf; [4]): 0
Plant response rating, Velvetleaf (velvetleaf; [5]): 1
Velvetleaf plant response rating (velvetleaf; [9]): 7
Velvetleaf plant response rating (velvetleaf; [7]): 7
Wheat plant response rating (wheat; [3]): 2
Plant response rating, Wheat (wheat; [4]): 0
Plant response rating, Wheat (wheat; [5]): 0
Wheat plant response rating (wheat; [9]): 4
Wheat plant response rating (wheat; [7]): 7
Wild oats plant response rating (wild oat; [3]): 3
Plant response rating, Wild oats (wild oat; [4]): 0
Plant response rating, Wild oats (wild oat; [5]): 2
Wild oats plant response rating (wild oat; [9]): 5
Wild oats plant response rating (wild oat; [7]): 8
Plant response rating, Nutsedge (purple nutsedge; [2]): 2
Nutsedge plant response rating (purple nutsedge; [3]): 3
Plant response rating, Nutsedge (purple nutsedge; [4]): 0
Plant response rating, Nutsedge (purple nutsedge; [5]): 0
Nutsedge plant response rating (purple nutsedge; [9]): 0
Nutsedge plant response rating (purple nutsedge; [7]): 0
Plant response rating, Rice (0 to 10 scale, 0 is no effect, 10 is complete control) (rice; [10]): 0
Rice plant response rating (0 to 10 scale, 0 is no effect, 10 is complete control) (rice; [11]): 0
Rice plant response rating (rice; [12]): 0
Rice plant response rating (rice; [13]): 0
Plant response rating, S. Flatsedge (0 to 10 scale, 0 is no effect, 10 is complete control) (smallflower flatsedge; [10]): 0
S. Flatsedge plant response rating (0 to 10 scale, 0 is no effect, 10 is complete control) (smallflower flatsedge; [11]): 0
S. Flatsedge plant response rating (smallflower flatsedge; [12]): 0
S. Flatsedge plant response rating (smallflower flatsedge; [13]): 0
Plant response rating, Ducksalad (0 to 10 scale, 0 is no effect, 10 is complete control) (duck salad; [10]): 0
Ducksalad plant response rating (0 to 10 scale, 0 is no effect, 10 is complete control) (duck salad; [11]): 0
Ducksalad plant response rating (duck salad; [12]): 0
Ducksalad plant response rating (duck salad; [13]): 0
Plant response rating, Barnyardgrass (0 to 10 scale, 0 is no effect, 10 is complete control) (bamyardgrass; [10]): 0
Barnyardgrass plant response rating (0 to 10 scale, 0 is no effect, 10 is complete control) (bamyardgrass; [11]): 0
Barnyardgrass plant response rating (bamyardgrass; [12]): 0
Barnyardgrass plant response rating (bamyardgrass; [13]): 0
